# Experimental data: patent US9988343B2, “Inhibitors of histone deacetylase” (Dana-Farber Cancer Institute, Inc., priority 2013, dated 2018)
# Key:
# [1] = system: MM cell lines; assay: Cell growth inhibition assay (MTT) in MM cell lines; type: cell-based, human; conditions: MM cell lines, 48 hours, MTT (FIG. 1A)
# Experimental: To measure proliferation of MM cells, the rate of DNA synthesis was measured by ^3[H]-thymidine (Perkin-Elmer) uptake.
# The growth inhibitory effect of Merck60 (HDACL, 2 inhibitor previously reported as compound #60 by Method et al. Bioorg. Med. Chem. Lett. 2008. 18(3):973-8) versus MS275 (HDAC1, 2, 3 inhibitor) was examined in MM cell lines using MTT assay. MM cells were cultured with Merck60 (left panel) or MS275 (right panel) for 48 hours. Cell growth was assessed by MTT assay. All experiments were performed 3 times in quadruplicate. Data represent mean±SD.
# Cell growth was assessed by MTT assay. All experiments were performed 3 times in quadruplicate. Data represent mean±SD.
# [2] = system: RPMI8226 cells; assay: Combination with bortezomib, MTT cytotoxicity, combination index; type: cell-based, human; conditions: for CI (combination index): RPMI8226, MTT, 24 h
# Experimental: The combined effect of drugs was analyzed by isobologram analysis using the Compusyn software program (ComboSyn, Inc.); a combination index (CI)<1 is indicative of a synergistic effect.
# All experiments were performed 3 times in quadruplicate. Data represent mean±SD (FIG. 7D).
# [3] = system: RPMI8226 cells; assay: Immunoblot of histone acetylation in RPMI8226 cells; type: cell-based, human; conditions: RPMI8226, 12 h, compared with Merck60 (FIG. 1C)
# [4] = target: PHF8 (Homo sapiens, UniProt Q9UPP1); conditions: King et al. 2010; cited from earlier work
# PHF8, sequence (Q9UPP1 whole entry, species assumed): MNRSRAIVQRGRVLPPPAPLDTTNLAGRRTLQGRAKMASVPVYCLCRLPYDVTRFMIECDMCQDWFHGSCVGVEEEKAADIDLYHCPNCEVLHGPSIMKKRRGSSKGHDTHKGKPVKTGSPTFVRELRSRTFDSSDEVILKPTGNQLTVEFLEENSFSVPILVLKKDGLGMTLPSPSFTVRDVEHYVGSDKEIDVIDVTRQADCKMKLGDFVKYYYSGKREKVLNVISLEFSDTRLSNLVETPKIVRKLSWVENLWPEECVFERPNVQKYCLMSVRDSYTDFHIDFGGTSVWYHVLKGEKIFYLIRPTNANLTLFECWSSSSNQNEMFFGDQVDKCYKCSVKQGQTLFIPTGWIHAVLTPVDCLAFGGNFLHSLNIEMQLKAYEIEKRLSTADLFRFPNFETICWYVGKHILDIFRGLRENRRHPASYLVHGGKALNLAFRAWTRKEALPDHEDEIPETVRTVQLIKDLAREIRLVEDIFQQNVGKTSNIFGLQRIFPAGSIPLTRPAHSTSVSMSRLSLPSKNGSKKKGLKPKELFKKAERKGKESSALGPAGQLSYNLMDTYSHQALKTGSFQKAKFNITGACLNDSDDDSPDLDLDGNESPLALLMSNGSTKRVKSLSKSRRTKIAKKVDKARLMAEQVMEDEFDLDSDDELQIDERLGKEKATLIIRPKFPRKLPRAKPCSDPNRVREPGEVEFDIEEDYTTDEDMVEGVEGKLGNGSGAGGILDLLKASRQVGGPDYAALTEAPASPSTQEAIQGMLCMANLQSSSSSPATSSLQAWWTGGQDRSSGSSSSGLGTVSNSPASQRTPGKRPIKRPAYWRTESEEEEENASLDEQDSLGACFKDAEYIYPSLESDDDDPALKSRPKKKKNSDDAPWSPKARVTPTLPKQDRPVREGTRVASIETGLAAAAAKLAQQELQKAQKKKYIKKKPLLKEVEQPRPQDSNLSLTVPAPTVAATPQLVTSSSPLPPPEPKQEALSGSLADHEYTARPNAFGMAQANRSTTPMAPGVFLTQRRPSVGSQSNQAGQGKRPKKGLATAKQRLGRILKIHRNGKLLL
# [5] = system: JMJD2A in HeLa cells; conditions: read-out: IC50 H3K9me3 demethylation by JMJD2A, King et al. 2010; cited from earlier work
# [6] = system: JMJ family demethylases, including several variants of JMJD2 and JMJD1; conditions: Kruidenier et al. 2012; cited from earlier work
# [7] = system: HDAC3 knockdown cells; assay: MTT cell growth in HDAC3 knockdown cells; type: cell-based, human
# Experimental: HDAC1, HDAC2 and HDAC3 pLKO.1 shRNA vectors were obtained from the RNA Interference Screening Facility at the Dana-Farber Cancer institute. Recombinant lentivirus was produced and infection of MM cells was performed using standard methods in the art.
# In addition, the effect of bortezomib on HDAC3 knockdown cells was examined. RPMI8226 (FIG. 7B, left panel) and MM.1S (FIG. 7B, right panel) cells were infected with Luc or HDAC3 (#1 and #2) shRNAs. Cells were then cultured with or without bortezomib (3 nM) for 48 hours and cell growth was assessed by MTT assay. Data represent mean±SD from triplicate cultures.
# Also, experiments were conducted to determine whether dual inhibition of both HDAC3 and HDAC6 was more cytotoxic than either HDAC3 or HDAC6 when combined with bortezomib. Cell growth was assayed by MTT assay in the presence of Luc (control), sh1 or sh2 shRNAs against HDAC3 alone, or in combination with a selective HDAC6 inhibitor—tubastatin-A, or in combination with both tubastatin-A and bortezomib.
# [8] = system: pSTAT3 (Tyr705); assay: Immunoblot of STAT3 phosphorylation in MM cells; type: cell-based, human; conditions: RPMI8226 infected with shRNAs, bortezomib 5 nM, 6 hours (FIG. 7C)
# Experimental: MM cells were harvested and lysed using sodium dodecyl sulfate-polyacrylamide gel electrophoresis (SDS-PAGE) sample buffer containing 60 mM Tris-HCl, pH 6.8, 2% SDS, 10% glycerol, 0.005% bromophenol blue, 5 mM ethylenediaminetetraacetic acid, 5 mM NaF, 2 mM […], 1 mM phenylmethylsulfonyl fluoride (PMSF), 5 μg/mL leupeptin, and 5 μg/mL aprotinin; and then heated at 100° C. for 5 min. After the determination of protein concentration using DC protein assay (Bio-Rad, Hercules, Calif.), β-mercaptoethanol (β-ME) was added to the whole-cell lysates to a 2% final β-ME concentration. The whole-cell lysates were subjected to SDS-PAGE, transferred to nitrocellulose membranes (Bio-Rad, Hercules, Calif.) or polyvinylidene fluoride membranes (Millipore, Billerica, Mass.), and immunoblotted with anti-histone H3, -HDAC1, -HDAC2, -HDAC3, -Acetyl-histone H2A (Lysine 5) (Ac-H2AK5), -Acetyl-histone H2B (lysine 5) (Ac-H2 BK5), -Acetyl-histone H3 (lysine 9) (Ac-H3K9), -Acetyl-histone H4 (lysine 8) (Ac-H4K8), -glyceraldehyde-3-phosphate dehydrogenase (GAPDH), -poly (ADP-ribose) polymerase (PARP), -caspase-3, -caspase-8, -caspase-9, -Signal transducers and activators of transcription 3 (STAT3), -phospho-STAT3 (pSTAT3) (tyrosine 705), -pSTAT3 (serine 727), -p21, -Janus kinase 2 (JAK2), -acetylated-Lysine (Ac-K), and anti-phosphorylated-tyrosine antibodies (Abs; Cell Signaling Technology, Beverly, Mass.).
# MM.1S, U266, and INA6 cells were cultured with DMSO control or LBH589 (50 and 100 nM) for 8 h.
# MM.1S cells pretreated with or without 50 nM LBH589 for 8 hours were then treated with IL-6 (10 ng/mL) or BMSC culture supernatants (#1 and #2) for 15 minutes. Whole cell lysates were subjected to immunoblotting with anti-pSTAT3 (Tyr705) and STAT3 Abs.
# In addition, INA-6 cells were cultured with DMSO control, LBH589 (50 nM), TSA (1 μM) or SAHA (2 μM) for 8 hours. Whole cell lysates were subjected to immunoblotting with anti-pSTAT3 (Tyr705), STAT3, and GAPDH Abs.
# Whole cell lysates were subjected to immunoblotting with anti-pSTAT3 (Tyr705), -STAT3, -pERK1/2 (Thr202/204), and -ERK1/2 Abs (FIG. 6G).
# See, e.g., Hideshima et al. Blood. 2006, 107:4053-4062. Since bortezomib upregulates activated STAT3 in head and neck squamous cell carcinoma (see, e.g., Li et al. Mol Cancer Ther 2009. 8:2211-2220), experiments were conducted to test whether bortezomib enhances p-STAT3 in MM cells. RPMI8226 cells were infected with Luc, HDAC1 (sh1), HDAC2 (sh1) or HDAC3 (sh1) shRNAs and then treated with or without bortezomib (5 nM) for 6 hours. Whole cell lysates were subjected to immunoblotting with anti-STAT3, -pSTAT3 (Tyr705), -pERK1/2 (Thr202/204) and -ERK1/2 Abs.
smiles,measurement,setting,value
Nc1ccccc1NC(=O)c1ccc(CNC(=O)OCc2cccnc2)cc1 [MS275],MM cell growth inhibition,[1],significant MM cell growth inhibition
same,CI (combination index),[2]; HDAC inhibitor 1 μM + bortezomib 4 nM,0.81
same,CI (combination index),[2]; HDAC inhibitor 2 μM + bortezomib 2 nM,0.56
same,CI (combination index),[2]; HDAC inhibitor 2 μM + bortezomib 3 nM,0.63
same,CI (combination index),[2]; HDAC inhibitor 2 μM + bortezomib 4 nM,0.76
same,CI (combination index),[2]; HDAC inhibitor 3 μM + bortezomib 2 nM,0.53
same,CI (combination index),[2]; HDAC inhibitor 3 μM + bortezomib 3 nM,0.62
same,CI (combination index),[2]; HDAC inhibitor 3 μM + bortezomib 4 nM,0.77
same,cytotoxicity in combination with bortezomib,"[2]; RPMI8226, bortezomib 0-4 nM + 1-3 μM, 24 hours (FIG. 7A)",synergistic cytotoxicity
same,"acetylation of histones (H2A, H2B, H3 and H4)",[3],more potently induced acetylation of histones
"O=C(O)c1ccc(O)c2ncccc12 [IOX1, 8-hydroxy-5-quinolinecarboxylic acid]",IC50,[4],13.3 µM
same,IC50,[5],87 µM
"O=C([O-])CCNc1cc(N2CCc3ccccc3CC2)nc(-c2ccccn2)n1.[Na+] [GSK J1, 3-((6-(4,5-dihydro-1H-benzo[d]azepin-3(2H)-yl)-2-(pyridin-2-yl)pyrimidin-4-yl)amino)propanoate, monosodium salt]",activity against a panel of additional JMJ family demethylases,[6],inactive
CN1CCc2c(c3ccccc3n2Cc2ccc(C(=O)NO)cc2)C1 [tubastatin-A],cytotoxicity of combined HDAC3 knockdown with bortezomib,"[7]; MTT, tubastatin-A added (FIG. 8B)",further enhanced cytotoxicity
"CC(C)CC(NC(=O)[C@H](Cc1ccccc1)NC(=O)c1cnccn1)B(O)O (stereo in doubt) [bortezomib, [(1R)-3-methyl-1-[[(2S)-1-oxo-3-phenyl-2-[(pyrazinylcarbonyl)amino]propyl]amino]butyl]boronic acid]",p-STAT3,[8],upregulated p-STAT3
same,cytotoxicity in HDAC3 knockdown cells,"[7]; RPMI8226 and MM.1S with HDAC3 shRNAs, bortezomib 3 nM, 48 hours, MTT (FIG. 7B)",significantly enhances cytotoxicity
